Assay results reported in patent publication US20250092039A1, “GLUTARIMIDE-CONTAINING PAN-KRAS-MUTANT DEGRADER COMPOUNDS AND USES THEREOF” (Tiger Biotherapeutics Inc., priority 2022, published 2025).
Read-outs that look alike come from different tables or passages of the source.

How the values were obtained:
KRAS-G12V/RAF1 = KRAS-G12V/RAF1 (Homo sapiens (Human), UniProt P01116, G12V); test: KRAS/RAF1 binding inhibition assay (AlphaScreen)
Outline: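 Binding of GppNHp-loaded KRAS G12V to the RAF1 RBD was measured by AlphaScreen with test compound present in 2% DMSO (final), 60 min incubation at 4° C. Signals were converted to % inhibition versus DMSO, and IC50 was obtained by variable-slope nonlinear regression.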

KRAS G12V = KRAS G12V (Homo sapiens (Human), UniProt P01116, G12V); test: KRAS G12V degradation in SW620 cells (Western blot, DC50); format: cell-based; details: 24 hours
Sequence of KRAS G12V (P01116-2 other isoform, or with tags, fused parts or gaps G12V): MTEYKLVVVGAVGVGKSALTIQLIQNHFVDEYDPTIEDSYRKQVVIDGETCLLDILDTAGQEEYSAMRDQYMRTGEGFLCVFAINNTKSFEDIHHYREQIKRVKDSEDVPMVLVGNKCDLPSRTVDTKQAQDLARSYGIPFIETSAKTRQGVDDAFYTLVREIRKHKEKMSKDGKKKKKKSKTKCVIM
Outline: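 SW620 cells (homozygous KRAS G12V) were treated with compound for 24 hours at 37° C. KRAS in lysates was measured by Western blot with fluorescent secondary antibodies and expressed relative to DMSO vehicle (100%). DC50 came from a four-parameter variable-slope dose-response fit.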

SW620 cells = test: 3D cell growth inhibition of SW620 cells carrying endogenous KRAS G12V mutation (CellTiter-Glo 3D, GI50); format: cell-based; details: Homo sapiens, SW-620, 144 h, read-out: SW620 3D cell growth GI50
Outline: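 SW620 cells (endogenous KRAS G12V) grown in 3D were dosed next day with compound from DMSO stocks at various concentrations, then incubated 6 days at 37° C.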

Sequence of KRAS-G12V/RAF1 (P01116-2 other isoform, or with tags, fused parts or gaps G12V): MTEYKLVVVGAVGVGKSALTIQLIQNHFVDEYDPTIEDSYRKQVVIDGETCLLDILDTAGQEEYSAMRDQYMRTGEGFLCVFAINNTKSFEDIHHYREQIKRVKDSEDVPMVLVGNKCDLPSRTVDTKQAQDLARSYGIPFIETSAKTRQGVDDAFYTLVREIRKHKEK

Row | IC50 (KRAS-G12V/RAF1) [nM] | DC50 (KRAS G12V) [nM] | GI50 (SW620 cells; SW620 cells, 6 days) [nM] | Structure (SMILES) | GI50 (SW620 cells) [nM]
1 | > 200 | > 100 | > 100 | Cc1nc(N)cc(-c2ncc3c(N4CCC[C@@](C)(O)C4)nc(OCC4(CN5CCC6(CC5)CC(CN5CCN(c7ccc8c(c7)CN([C@H]7CCC(=O)NC7=O)C8=O)CC5)C6)CC4)nc3c2F)c1C(F)(F)F [Compound 26, (S)-3-(5-(4-((7-((1-(((7-(6-amino-2-methyl-3-(trifluoromethyl)pyridin-4-yl)-8-fluoro-4-((R)-3-hydroxy-3-methylpiperidin-1-yl)pyrido[4,3-d]pyrimidin-2-yl)oxy)methyl)cyclopropyl)methyl)-7-azaspiro[3.5]nonan-2-yl)methyl)piperazin-1-yl)-1-oxoisoindolin-2-yl)piperidine-2,6-dione] | –
2 | < 20 | 1 to 10 | < 10 | CCc1cccc2cc(O)cc(-c3ncc4c(N5CCC[C@@](C)(O)C5)nc(OCC5(CN6CCC(N7CC8(CCN(c9ccc%10c(c9)CN([C@H]9CCC(=O)NC9=O)C%10=O)CC8)C7)CC6)CC5)nc4c3F)c12 [Compound 30, (S)-3-(5-(2-(1-((1-(((7-(8-ethyl-3-hydroxynaphthalen-1-yl)-8-fluoro-4-((R)-3-hydroxy-3-methylpiperidin-1-yl)pyrido[4,3-d]pyrimidin-2-yl)oxy)methyl)cyclopropyl)methyl)piperidin-4-yl)-2,7-diazaspiro[3.5]nonan-7-yl)-1-oxoisoindolin-2-yl)piperidine-2,6-dione] | –
3 | 20 to 200 | 1 to 10 | < 10 | CCc1cccc2cc(O)cc(-c3ncc4c(N5CCC[C@@](C)(O)C5)nc(OCC5(CN6CCC7(CC6)CC(CN6CCN(c8ccc9c(c8)C(=O)N(C8CCC(=O)NC8=O)C9=O)CC6)C7)CC5)nc4c3F)c12 (stereo partly drawn) [Compound 32, 2-(2,6-dioxopiperidin-3-yl)-5-(4-((7-((1-(((7-(8-ethyl-3-hydroxynaphthalen-1-yl)-8-fluoro-4-((R)-3-hydroxy-3-methylpiperidin-1-yl)pyrido[4,3-d]pyrimidin-2-yl)oxy)methyl)cyclopropyl)methyl)-7-azaspiro[3.5]nonan-2-yl)methyl)piperazin-1-yl)isoindoline-1,3-dione] | –
4 | 20 to 200 | 1 to 10 | < 10 | CCc1c(F)ccc2cc(O)cc(-c3ncc4c(N5CCC[C@@](C)(O)C5)nc(OCC5(CN6CCC(C)(CN7CCN(c8ccc9c(c8)CN([C@@H]8CCC(=O)NC8=O)C9=O)CC7)CC6)CC5)nc4c3F)c12 [Compound 63, (R)-3-(5-(4-((1-((1-(((7-(8-ethyl-7-fluoro-3-hydroxynaphthalen-1-yl)-8-fluoro-4-((R)-3-hydroxy-3-methylpiperidin-1-yl)pyrido[4,3-d]pyrimidin-2-yl)oxy)methyl)cyclopropyl)methyl)-4-methylpiperidin-4-yl)methyl)piperazin-1-yl)-1-oxoisoindolin-2-yl)piperidine-2,6-dione] | –
5 | < 20 | < 1 | < 10 | CCc1c(F)ccc2cc(O)cc(-c3ncc4c(N5CCC[C@@](C)(O)C5)nc(OCC5(CN6CCC(F)(CN7CCC(N8CCN(c9ccc%10c(c9)CN([C@H]9CCC(=O)NC9=O)C%10=O)CC8)CC7)CC6)CC5)nc4c3F)c12 [Compound 72, (S)-3-(5-(4-(1-((1-((1-(((7-(8-ethyl-7-fluoro-3-hydroxynaphthalen-1-yl)-8-fluoro-4-((R)-3-hydroxy-3-methylpiperidin-1-yl)pyrido[4,3-d]pyrimidin-2-yl)oxy)methyl)cyclopropyl)methyl)-4-fluoropiperidin-4-yl)methyl)piperidin-4-yl)piperazin-1-yl)-1-oxoisoindolin-2-yl)piperidine-2,6-dione] | –
6 | > 200 | > 100 | 10 to 100 | CCc1c(F)ccc2cc(N)cc(-c3ncc4c(N5CCC[C@@](C)(O)C5)nc(OCC5(CN6CCC7(CC6)CC(CN6CCN(c8ccc9c(c8)CN([C@H]8CCC(=O)NC8=O)C9=O)CC6)C7)CC5)nc4c3F)c12 [Compound 88, (S)-3-(5-(4-((7-((1-(((7-(3-amino-8-ethyl-7-fluoronaphthalen-1-yl)-8-fluoro-4-((R)-3-hydroxy-3-methylpiperidin-1-yl)pyrido[4,3-d]pyrimidin-2-yl)oxy)methyl)cyclopropyl)methyl)-7-azaspiro[3.5]nonan-2-yl)methyl)piperazin-1-yl)-1-oxoisoindolin-2-yl)piperidine-2,6-dione] | –
7 | > 200 | > 100 | > 100 | CCc1c(F)ccc2cc(N)cc(-c3ncc4c(N5CCC[C@@](C)(O)C5)nc(OCC5(CN6CCC(CN7CCN(c8ccc9c(c8)CN([C@H]8CCC(=O)NC8=O)C9=O)CC7)CC6)CC5)nc4c3F)c12 [Compound 89, (S)-3-(5-(4-((1-((1-(((7-(3-amino-8-ethyl-7-fluoronaphthalen-1-yl)-8-fluoro-4-((R)-3-hydroxy-3-methylpiperidin-1-yl)pyrido[4,3-d]pyrimidin-2-yl)oxy)methyl)cyclopropyl)methyl)piperidin-4-yl)methyl)piperazin-1-yl)-1-oxoisoindolin-2-yl)piperidine-2,6-dione] | –

More lines, now with the values behind:

Row | Structure (SMILES) | IC50 (KRAS-G12V/RAF1) [nM] | DC50 (KRAS G12V) [nM] | GI50 (SW620 cells; SW620 cells, 6 days) [nM] | GI50 (SW620 cells) [nM]
8 | CCc1cccc2cc(O)cc(-c3ncc4c(N(C)[C@@H]5C[C@H]5F)nc(OCC5(CN6CCC7(CC6)CC(CN6CCN(c8ccc9c(c8)CN([C@H]8CCC(=O)NC8=O)C9=O)CC6)C7)CC5)nc4c3F)c12 [Compound 27, (S)-3-(5-(4-((7-((1-(((7-(8-ethyl-3-hydroxynaphthalen-1-yl)-8-fluoro-4-(((1R,2R)-2-fluorocyclopropyl)(methyl)amino)pyrido[4,3-d]pyrimidin-2-yl)oxy)methyl)cyclopropyl)methyl)-7-azaspiro[3.5]nonan-2-yl)methyl)piperazin-1-yl)-1-oxoisoindolin-2-yl)piperidine-2,6-dione] | > 200 | 1 to 10 | 10 to 100 | –
9 | CCc1cccc2cc(O)cc(-c3ncc4c(N5CCC[C@@](C)(O)C5)nc(OCC5(CN6CCC7(CC6)CC(N6CCN(c8ccc9c(c8)C(=O)N(C8CCC(=O)NC8=O)C9=O)CC6)C7)CC5)nc4c3F)c12 (stereo partly drawn) [Compound 31, 2-(2,6-dioxopiperidin-3-yl)-5-(4-(7-((1-(((7-(8-ethyl-3-hydroxynaphthalen-1-yl)-8-fluoro-4-((R)-3-hydroxy-3-methylpiperidin-1-yl)pyrido[4,3-d]pyrimidin-2-yl)oxy)methyl)cyclopropyl)methyl)-7-azaspiro[3.5]nonan-2-yl)piperazin-1-yl)isoindoline-1,3-dione] | 20 to 200 | 1 to 10 | < 10 | –
10 | CCc1c(F)ccc2cc(O)cc(-c3ncc4c(N5CCC[C@@](C)(O)C5)nc(OCC5(CN6CCC(OC7CCN(C8CCN(c9ccc%10c(c9)CN(C9CCC(=O)NC9=O)C%10=O)CC8)CC7)CC6)CC5)nc4c3F)c12 (stereo partly drawn) [Compound 43, 3-(5-(4-((1-((1-(((7-(8-ethyl-7-fluoro-3-hydroxynaphthalen-1-yl)-8-fluoro-4-((R)-3-hydroxy-3-methylpiperidin-1-yl)pyrido[4,3-d]pyrimidin-2-yl)oxy)methyl)cyclopropyl)methyl)piperidin-4-yl)oxy)-[1,4′-bipiperidin]-1′-yl)-1-oxoisoindolin-2-yl)piperidine-2,6-dione] | < 20 | < 1 | < 10 | –
11 | CCc1c(F)ccc2cc(O)cc(-c3ncc4c(N5CCC[C@@](C)(O)C5)nc(OCC5(CN6CCC7(CCN(CCc8cc(F)c(C9CCC(=O)NC9=O)c(F)c8)CC7)CC6)CC5)nc4c3F)c12 (stereo partly drawn) [Compound 56, 3-(4-(2-(9-((1-(((7-(8-ethyl-7-fluoro-3-hydroxynaphthalen-1-yl)-8-fluoro-4-((R)-3-hydroxy-3-methylpiperidin-1-yl)pyrido[4,3-d]pyrimidin-2-yl)oxy)methyl)cyclopropyl)methyl)-3,9-diazaspiro[5.5]undecan-3-yl)ethyl)-2,6-difluorophenyl) piperidine-2,6-dione] | < 20 | 1 to 10 | – | < 10
12 | CCc1c(F)ccc2cc(O)cc(-c3ncc4c(N5CCC[C@@](C)(O)C5)nc(OCC5(CN6CCC(N7CC8(CCN(c9cc(F)c(C%10CCC(=O)NC%10=O)c(F)c9)CC8)C7)CC6)CC5)nc4c3F)c12 (stereo partly drawn) [Compound 57, 3-(4-(2-(1-((1-(((7-(8-ethyl-7-fluoro-3-hydroxynaphthalen-1-yl)-8-fluoro-4-((R)-3-hydroxy-3-methylpiperidin-1-yl)pyrido[4,3-d]pyrimidin-2-yl)oxy)methyl)cyclopropyl)methyl)piperidin-4-yl)-2,7-diazaspiro[3.5]nonan-7-yl)-2,6-difluorophenyl)piperidine-2,6-dione] | < 20 | 1 to 10 | < 10 | –
13 | CCc1cccc2cc(O)cc(-c3ncc4c(N5CCC[C@@](C)(O)C5)nc(OCC5(CN6CCC7(CC6)CC(CN6CCN(c8ccc9c(c8)CN([C@H]8CCC(=O)NC8=O)C9=O)CC6)C7)CC5)nc4c3F)c12 [Compound 87, (S)-3-(5-(4-((7-((1-(((7-(8-ethyl-3-hydroxynaphthalen-1-yl)-8-fluoro-4-((R)-3-hydroxy-3-methylpiperidin-1-yl)pyrido[4,3-d]pyrimidin-2-yl)oxy)methyl)cyclopropyl)methyl)-7-azaspiro[3.5]nonan-2-yl)methyl)piperazin-1-yl)-1-oxoisoindolin-2-yl)piperidine-2,6-dione] | 20 to 200 | 1 to 10 | – | < 10
